Test [1] deals with MDA-MB-231 xenografts. Description: MDA-MB-231 xenograft anti-tumor activity. Type of test: in vivo, nude mice. Conditions: i.v., 50 mg/kg. As for the experimental part:
MDA-MB-231 (5 × 10^6 cells) were inoculated into the left abdominal mammary fat pad of 6-week-old female nude mice, and tumor growth was monitored. […] After four weeks of treatment, all mice were sacrificed according to ethical guidelines. Tumors were excised and analyzed. Tumor volume was measured using a Vernier caliper and calculated according to the following formula: π/6 × length × width^2. All animal handling and procedures were approved by the Capital Medical University Institutional Animal Care. Tumor and adjacent tissues were rapidly fixed in 4% paraformaldehyde (Sigma-Aldrich) for at least 24 h and embedded in paraffin for microscopic examination. From the prepared paraffin blocks, 5-μm thick sections were cut and stained with hematoxylin and eosin (H&E) for light microscopic observation. Sections were processed as per standard protocols using 3,3'-diaminobenzidine (DAB) staining. All human and mouse tissues were collected according to protocols approved by the Ethics Committee of Capital Medical University, and informed consent was obtained from all patients.

Test [2] relates to breast cancer cells. Put plainly: Transwell cell invasion assay. Type of test: cell-based, human. Conditions: matrigel transwell, P < 0.05. As to the method:
Transwell chamber filters (BD) were coated with Matrigel diluted (1:10) in serum-free medium. […] After treatment, cells were digested and suspended in serum-free media. Cells (8,000 cells per well) were seeded into the upper chamber of the transwell chambers, and the chambers were transferred into 24-well plates containing 500 μl culture medium per well. After 20 h of incubation, cells in the upper chamber were fixed with 4% formaldehyde, washed with PBS, and stained with crystal violet for half an hour. Images of invasive cells were captured using a light microscope.

In test [3] the test system is primary breast cancer cells. Put plainly: Intracellular calcium measurement (Fluo-4-AM). Type of test: cell-based, human. To be noted: thrombin stimulation.
Description: After treatment, the cells were digested and seeded in 96-well black plates (Corning Costar, Cambridge, MA, USA) and cultured for 20 h. For measurement of [Ca^2+]i, the cells were labeled with Fluo-4-AM in serum-free medium for half an hour at room temperature. After washing with Dulbecco's Phosphate Buffered Saline (D-PBS), cells were overlaid in Hank's balanced salt solution (5.4 mM KCl, 1 mM MgCl2, 20 mM hydroxyethyl piperazineethanesulfonic acid (HEPES), 120 mM NaCl, 10 mM glucose, 0.2 mM Ethylenebis(oxyethylenenitrilo)tetraacetic acid (EGTA)). Continuous fluorescence intensity was detected after thrombin was added as a calcium agonist by an automated sampler. Response over baseline was assessed as a relative measure of [Ca^2+]i.
For test [4], the system named is MDA-MB-231, T-47D, and primary breast tumor cells. Description: Colony formation assay. Type of test: cell-based, human. To be noted: crystal violet staining. As for the experimental part:
The colony-formation ability of MDA-MB-231 and T-47D cells were measured by the clonogenic assay. […] After treatment, cells were digested and suspended in culture medium at a density of 5 × 10^3 cells/ml. Cells (2,000 cells per well) were seeded into 6-well plates and cultured for two weeks. The, cells were fixed with 4% formaldehyde and washed with phosphate-buffered saline (PBS) and stained with crystal violet for half an hour. Images of colonies were captured using a light microscope.

In test [5] the test system is MDA-MB-231 cells. Description: RT-qPCR of marker genes. Type of test: cell-based, human. As to the method:
Reverse transcription was performed using the RevertAid First Strand cDNA Synthesis Kit ([…]) according to the manufacturer's instructions. The primers for the detection of target mRNA are shown in Table S2. β-actin was used as an internal reference. The relative expression of target genes was calculated by the 2^-ΔΔCt method.
A general note: In qPCR the cycle at which signal appears reflects the starting amount.

Test [6] has as its system MDA-MB-231, T-47D, and primary breast tumor cells. Put plainly: Wound-healing assay. Type of test: cell-based, human. To be noted: compared with DMSO treatment, P < 0.05. As to the method:
Tumor cell migration was determined by the wound healing assay. […] After treatment, a straight scratch was made onto the cell monolayer using a pipette tip. The cells were washed with PBS three times to remove the floating cells, and the cells were cultured in serum-free medium for 24 h. Cell wound edges were captured using a light microscope.

Test [7] relates to MDA-MB-231 cells. Put plainly: High-content epigenetic inhibitor screen, quantification of living cells. Type of test: cell-based, human. To be noted: 72 h. The text has this:
(§1) HeLa, MCF-7 and MDA-MB-231 cell lines were purchased from the American Type Culture Collection. MCF-10A, T-47D, PANC-1, A549, HCT-15, Caco-2, SMMC-7721, SH-SY5Y, HUVEC and PC-3 cell lines were obtained from the Chinese Academy of Medical Sciences. MEF was isolated from pregnant mice at 14‒16 days of pregnancy. Primary breast cancer cells were isolated from breast cancer patients. All media including Dulbecco Modified Eagle Medium (DMEM), RPMI 1640 Medium and DMEM/Nutrient Mixture F-12 were supplemented with 10% fetal bovine serum (FBS), 100 units/mL penicillin, and […] streptomycin (Gibco, Waltham, MA, USA). Cells were cultured in a humidified incubator equilibrated with 5% CO2 at 37 °C. Cells were treated for 24-72 h in adherent conditions with compounds from an epigenetic small molecule inhibitor library (L1200, Topscience, Shanghai, China).
Statistical analyses of all data were performed using GraphPad Prism (version 8.0, Graph Pad Software Inc., San Diego, CA, USA). All the data were analyzed by Student's t-test or one-way ANOVA. The Z-Score was chosen to evaluate the results and experimental deviation. Quantitative data are presented as the mean ± SD. The asterisk (*) denotes statistically significant difference (P < 0.05). IC50 was calculated using a four-parameter fit with variable slope in GraphPad Prism.
To identify potential anti-tumor inhibitors, we screened an epigenetic small molecule inhibitor library for anti-tumor activity in breast cancer cells. […] The selection strategy mainly comprised three stages, in which different concentrations (high to low) of inhibitors screened with a high-content analysis instrument were identified using cancer cell lines in a 96-well plate format (Figure 1A). For the first step, we treated cells with a high concentration of compounds to exclude compounds ineffective in killing cancer cells. MDA-MB-231 cells, a human breast cancer cell line, were treated with 167 epigenetic compounds (30 μM each) for 48 h, and then analyzed by high-content analysis, where changes in cell morphology relative to the control (dimethyl sulfoxide, DMSO) would indicate modulation of cancer cells by compound treatment. […] At the second step, we treated the cells with the 60 compounds at a median concentration (3 μM) for 72 h to screen for inhibitors that can kill cancer cells with high efficiency.

Test [8] deals with MDA-MB-231 and primary breast tumor cells. Description: EdU incorporation assay. To be noted: compared to DMSO treatment. Type of test: cell-based, human. From the text:
After that, DNA proliferation was detected using an EdU assay kit according to the manufacturer's instructions (RiboBio, Guangzhou, China).

In test [9] the test system is Primary breast tumor cells. Description: CCK8 assay IC50. Conditions: Homo sapiens, breast cancer, 72 h. Type of test: cell-based, human.
Source text: as §1
Cell viability was then detected using a CCK8 assay (MedChemExpress, USA) according to the manufacturer's instructions.
Statistical analyses of all data were performed using GraphPad Prism (version 8.0, Graph Pad Software Inc., San Diego, CA, USA). All the data were analyzed by Student's t-test or one-way ANOVA. The Z-Score was chosen to evaluate the results and experimental deviation. Quantitative data are presented as the mean ± SD. […] IC50 was calculated using a four-parameter fit with variable slope in GraphPad Prism.

The values below come from paper PMC7797697 (Theranostics, 2021).

By IC50 is commonly meant the concentration at which inhibition is half-maximal. Low readings indicate inhibition by little substance, high ones a need for much substance. Take `CN(C)Cc1c(C(=O)NCCOc2ccc(C(=O)NO)cc2)oc2ccccc12` [PCI-24781]: the “Ki-67 staining of tumor tissues” value in [1] is “inhibited tumor proliferation”. The compound further registered a tumor growth inhibition in test [1] (every other day for four weeks, compared to control group, P < 0.0001) of 74.6%. Further, the “RGS2 IHC staining in tumor tissues” value in [1] (versus control group) is “more abundant and more intensely stained”. The invasive capacity entry in test [2] was “significant reduction in the invasive capacity”. For the same compound, the “amplitude of [Ca^2+]i oscillations” value in test [3] is listed as “significant decrease in the amplitude”. Moreover, the colony formation entry in test [4] is given as “decreased colony formation”. Moreover, in [5], the “expression of Ca^2+-related pathway markers (SYT1, SYTL2, SYT7, SYT12, TC2N, MMP1, MMP3, PLCβ3)” value was “downregulated”; the “expression of MMP2, MMP15, and MMP16” value was “significantly inhibited”; the “expression of epithelial markers (α-catenin, γ-catenin)” value is “significant upregulation”; the “mRNA levels of mesenchymal/NE markers (N-cadherin, vimentin, fibronectin, Syn, ASH1, NCAM1)” value is recorded as “either inhibited or unaffected”. The “wound closure (cell migration)” value in test [6] is on record as “significant delay”. Further, the cell death in [7] (0.15 μM) was ~ 20%. Besides, in [7] (3 μM), the “effect on cell survival” value is listed as “discernible effects on cell survival”. Further, the “cell proliferation (EdU incorporation)” value in test [8] is “decreased proliferation”. Half-maximal inhibition in test [9] (IC50) was put at 876 nM.
